According to a melting point compilation (Tetko et al.):

SMILES | melting point
CC(C)(C)[Si](C)(C)Cl | 88 °C
CC(=O)Oc1c(-c2ccccc2)n(C(C)=O)c2cc([N+](=O)[O-])c(/C(Cl)=C/c3ccccc3)cc12 | 57 to 58 °C
CCOC(=O)c1nn(-c2ccc(C)cc2)c(C)c1C(=O)C1=NOC2C(=O)N(c3ccc(OC)cc3)C(=O)C12 (stereo unspecified) | 221 °C
COc1ccc([N+](=O)[O-])c(N)c1 | 131 °C
CCOC(=O)c1cc(-c2cccs2)n(C)n1 | 38 to 41 °C
Clc1ccc(NC2=NCCN2)cc1 | 147 to 148 °C
O=C(O)c1cc(-c2ccccc2)c(C(F)(F)F)s1 | 130 to 132 °C
c1ccc2c(c1)ccc1nncn12 | 175 to 177 °C
FC(F)(F)c1n[nH]c(/N=C/c2ccc(Cl)cc2)n1 | 233 °C
Cc1c(CN2CCOC(c3ccccc3)C2C)c(=O)n(-c2ccccc2)n1C (stereo unspecified) | 149 °C
O=C1OC(c2ccccc2)=NC1=Cc1ccccc1F | 148 to 149 °C
O=C(CC(=O)C(F)(F)F)c1ccc2c(c1)OCO2 | 108 to 109 °C
CCOC(O)=C1C=NC2=C(CNN2C)C1=O | 139 °C
COc1cc(C(=O)c2ccc(-c3ccccc3)cc2)c([N+](=O)[O-])cc1OC | 144 to 145 °C
CCOC(=O)NC(N)=O | 196 °C
O=S(=O)(Cl)c1ccccc1Br | 50 to 51 °C
c1ccc(P(CCCCCCP(c2ccccc2)c2ccccc2)c2ccccc2)cc1 | 127 °C
c1ccc(Cc2cccc3ccccc23)cc1 | 59.5 °C
O=C1C(Cl)=C(Cl)C(=O)N1c1ccc(F)cc1 | 241 °C
COc1ccccc1C1OC(=O)CC1C(=O)O (stereo unspecified) | 124 to 125 °C
CC(=O)Nc1ccccc1CCc1ccccc1NC(C)=O | 250 °C
CC/C(CCCc1ccccc1)=N\NC(N)=O | 149 °C
CC(C)(C)c1cc(C(=O)O)n(Cc2ccccc2)n1 | 126 °C
CSc1ccc(O)cc1C | 56 °C
O=C(NC(CO)Cc1ccccc1)OCc1ccccc1 (stereo unspecified) | 94 °C
CC(C)C1=C(O)C(=O)C2=C(C=CC3C(C)(C)CCCC23C)C1=O (stereo unspecified) | 167 °C

SMILES | melting point
COc1cc(OC(F)(F)F)ccc1C#N | 35 °C
CC(=O)OC1CC[C@@]2(C)C(CC[C@@H]3[C@@H]2CC[C@@]2(C)[C@H]3CC[C@]2(O)CCc2ccccc2)C1 (stereo partly specified) | 137 to 139 °C
Cc1cc([N+](=O)[O-])cc(Cl)c1N | 175 °C
CCC(C)(C)[C@H]1CC[C@H](O)CC1 | 26 °C
COc1ccc2c3c1OC1C(O)CC=C4C(C2)N(C)CCC431 (stereo unspecified) | 128 °C
CCOC(=O)Cc1ccncc1 | 19 °C
CC(/N=N/c1cc(Cl)cc(Cl)c1O)=C(/C(=O)N1CCOCC1)N1CCOCC1 | 76.5 °C
CCOC(=O)c1cn(-c2ccc(F)cc2F)c2nc(Cl)c(F)cc2c1=O | 212 to 215 °C
CC(=O)OC1CCC2C3CCC4CC(CC(=O)O)CCC4(C)C3CCC12C (stereo unspecified) | 151 to 153 °C
FC(F)(F)c1ccc2nsnc2c1 | 36 to 37 °C
Brc1ccc2c(c1)OCOC2 | 49 to 51 °C
N#Cc1ccc(CN2CCOCC2)cc1 | 86 to 87 °C
CC1=NN(c2ccccc2)C(=O)C1C(=O)c1ccccc1 (stereo unspecified) | 90 to 92 °C
O=C(O)c1ccc(C(F)(F)F)nc1Cl | 120 to 122 °C
O=C(Nc1ccc(Cl)cc1)c1cccnc1Cl | 148 to 149 °C
Cc1cccc(C(N)=NO)c1 | 143 to 146 °C
CC(=O)OC1CCC2C3CCC45OC4C(=O)C=CC5(O)C3CCC12C (stereo unspecified) | 178 °C
O=CC1=Cc2cc(O)ccc2OC1 | 165 °C
CC12CCC3c4ccc(OC5CCCC5)cc4CCC3C1CC(O)C2O (stereo unspecified) | 99 °C
FC(F)(F)c1cc(-c2cccs2)nc2cc(-c3cccs3)nn12 | 158 °C
O=C1CC[C@@H](CO)N1 | 78 to 86 °C
CC(CC(=O)O)C1CCC2C3CCC4CCCCC4(C)C3CCC12C (stereo unspecified) | 177 °C
COc1ccc(-c2csc(/C(C#N)=N\Nc3ccc(O)cc3)n2)cc1 | 235 °C
CC(/C=C(\C)c1ccc(-c2ccccc2)cc1)=NNS(=O)(=O)c1ccc(C)cc1 | 132 to 134 °C
N#Cc1ccc(N)c2ccccc12 | 176 °C
NCCCCCCCCCCN | 62.5 °C

SMILES | melting point
CCC(C(=O)Nc1cccc2ccccc12)C1CCC(OC)CC1 (stereo unspecified) | 163 °C
C=C1CCC2(O)C3Cc4ccc(O)c5c4C2(CCN3CC2CC2)C1O5 (stereo unspecified) | 189 °C
O=C(O)C(F)(F)C(F)(F)C(F)(F)C(F)(F)C(F)(F)C(F)(F)C(F)(F)C(F)(F)C(=O)O | 154 to 160 °C
Clc1ccc2c(c1)C(c1ccccc1)=NCc1nncn1-2 | 228 °C
O=C(O)c1cc(I)ccc1F | 163 °C
C=CCC1(C(C)C)C(=O)NC(=O)N(C)C1=O (stereo unspecified) | 56.5 °C
S=C1NCCCCN1 | 178 to 180 °C
CCCCCSc1nnc[nH]1 | 47 to 48 °C
C#CCO | -51.8 °C
Cc1ccc(-c2snc(Cl)c2C#N)cc1 | 82 to 83 °C
COc1cccc2sc(N)nc12 | 156 °C
CCCCCCC(O)CC=CCCCCCCCC(=O)O (stereo unspecified) | 5.5 °C
CC(C)c1cccc2ccccc12 | -16 °C
CN(C)c1nc2ccccc2cc1C=O | 52 to 53 °C
Cc1c(O)c(C)c(CCl)c(C)c1CCl | 135 to 140 °C
O=C(CO)[C@@H](O)[C@H](O)[C@@H](O)CO | 165 °C
Cc1nc(C(=O)O)c(C)o1 | 232 to 233 °C
OCC1CCNCC1 | 59 °C
COc1cc(CCn2cccc2C(=O)O)cc(OC)c1OC | 132 °C
CCOC(=O)C(C#N)c1cc(Cl)c([N+](=O)[O-])cc1[N+](=O)[O-] (stereo unspecified) | 109 °C
CC1CCC(C(C)C)C(OC(=O)C(C=Cc2ccccc2)C(=O)c2ccccc2)C1 (stereo unspecified) | 104 °C
O=C(O)c1ccc(Cl)nc1Cl | 148 °C
Nc1c(F)cc(F)cc1Cl | 30 °C
COc1cc(CCNC(=O)CC(C)C)ccc1OCc1ccccc1 | 114 °C
CCOC(=O)/C=C/[C@@H]1[C@@H](c2ccccc2)N1C(=O)c1ccccc1 | 118 °C
NC(=NO)c1ccc(C(F)(F)F)cc1 | 125 to 128 °C

SMILES | melting point
CC12CCC(CCC1=O)C2(C)C (stereo unspecified) | 193 °C
CC(C)OC(=O)C1=C(C(=O)O)C2c3ccccc3C1c1ccccc12 | 176 °C
COc1ccccc1Oc1ccc(S(=O)(=O)Cl)cc1 | 54 to 56 °C
CC(=O)N1C(=O)[C@@](O)([C@H]2c3ccccc3O[C@@H]2Cl)c2ccccc21 | 133 °C
O=c1ccnc[nH]1 | 163 to 168 °C
CCCCCCCCCCCCCCC=O | 24.5 °C
ClCCc1ccccc1 | -60 °C
Cn1c(/C(C#N)=N/Nc2cccc(Cl)c2)nc2ccccc21 | 165 °C
O=Cc1cccc(Cn2cncn2)c1 | 54 to 56 °C
Ic1ccc2c(c1)Oc1ccccc1O2 | 95 °C
CC(=O)OC1=C(C)C2(OC(C)=O)CCC1C1C(=O)NC(=O)C12 (stereo unspecified) | 161 to 162 °C
CCCCC#CCCCC | -73 °C
NC[C@H]1CC[C@H](C(=O)O)CC1 | 300 °C
CCCC(=O)c1c(C)cc(C)c(C2CC(=O)C(C(CC)=NOCC)=C(O)C2)c1C (stereo unspecified) | 80.8 °C
CSc1sc(C(=O)O)c(Cl)c1S(=O)(=O)C(C)C | 227 to 230 °C
O=C(C=Cc1ccc2c(c1)OCO2)c1ccc(O)cc1 | 209 to 210 °C
CC1=C(O)C(=O)CC1 | 106 °C
CSc1ccc(C(F)(F)F)cc1[N+](=O)[O-] | 94 to 96 °C
COc1ccc(C#N)cc1Br | 122 °C
CCCC=CCCC | -90 °C
CC(C)c1cc(Br)c(N)c(Br)c1 | 46 °C
O=C(C(=O)c1cccs1)c1cccs1 | 82.5 °C
O=C(O)c1ccncc1 | 315 °C
CCOC(=O)c1c(-c2ccco2)csc1N | 86 to 89 °C
CC(C)[Si](Cl)(Cl)Cl | -87.7 °C
COc1ccc(Cl)c([N+](=O)[O-])c1 | 44 °C

SMILES | melting point
O=Cc1ccccc1OCc1c(Cl)cccc1Cl | 109 to 112 °C
Nc1ccc(S(=O)(=O)Nc2ccnn2-c2ccccc2)cc1 | 181 °C
CC1=NN(c2ccccc2)C(=O)/C1=C\c1cccc(/C=C2\C(=O)N(c3ccccc3)N=C2C)c1 | 220 °C
FC(F)OC(F)F | -123 °C
O=C(O)c1c(C(=O)O)c(C(=O)O)c(C(=O)O)c(C(=O)O)c1C(=O)O | 287 °C
O=C(Nc1ccccc1C#CC#Cc1ccccc1NC(=O)c1ccccc1)c1ccccc1 | 211 °C
COc1cc(CC(C)N)c(OC)cc1C (stereo unspecified) | 60.8 °C
N#Cc1ccc(Br)cn1 | 126 °C
O=C(O)CC(C(=O)O)C(CC(=O)O)C(=O)O (stereo unspecified) | 195 to 197 °C
O=C(O)C1CCCCN1 (stereo unspecified) | 277 °C
O=[N+]([O-])c1ccc(Oc2c(Cl)cc(Cl)cc2Cl)cc1 | 106 °C
CC1=CCC=C(C)CCC=C(C)CCC(C(C)C)C=C1 (stereo unspecified) | 59 to 61 °C
Cc1cc(C)c(C(=O)O)cc1C | 152 °C
Cc1n[nH]c(C)c1C(C)(C)C | 104 °C
O=C(C=Cc1ccc(O)cc1)c1ccccc1 | 184 °C
C=COC(=O)CC | -80 °C
O=[N+]([O-])c1ccc(-c2ccc(NNc3ccccc3)cc2)cc1 | 165 °C
Cc1ccc([Si](C)(C)c2ccccc2CO)cc1 | 56 °C
CCc1ccc(C(c2ccc(C(c3ccc(CC)o3)c3ccc(CC)o3)cc2)c2ccc(CC)o2)o1 | 81 °C
C[Si](C)(Cl)O[Si](C)(C)O[Si](C)(C)Cl | -53 °C
O=[N+]([O-])c1cc([N+](=O)[O-])c(Nc2ccc3c(c2)OCCOCCOCCOCCO3)c(C(F)(F)F)c1 | 171 °C
Cc1nc(CC#N)sc1/N=N/c1ccc([N+](=O)[O-])cc1 | 233 °C
